Measured values published in patent US9394275B2, “Diamide compounds having muscarinic receptor antagonist and BETA2 adrenergic receptor agonist activity” (THERAVANCE RESPIRATORY COMPANY, LLC, priority 2009, dated 2016).
Structures can show the parent of a compound that is named as a salt.

system: MCh-induced bronchoconstriction in a rat; assay: Einthoven assay: bronchoprotection against methacholine (MCh)-induced bronchoconstriction; format: in vivo; settings: Rattus norvegicus, inhaled or nasal, 24 h, read-out: Broncho. at 24 h
Protocol: This assay measures the ability of a test compound to provide bronchoprotection against methacholine (MCh)-induced bronchoconstriction in a rat. Male Sprague-Dawley rats (Harlan, Indianapolis, Ind.), weighing between 200 g and 350 g, were used for all studies. Test compound or vehicle (sterile deionized water) were dosed by inhalation (IH) over a 10 min period in a pie shaped inhalation chamber (R+S Molds, San Carlos, Calif.) using 5 mL of dosing solution. […] Rats were dosed with 100 μg of test compound unless otherwise indicated. At predetermined time points, rats were anesthetized with an intraperitoneal (IP) injection of 120 mg/kg inactin (thiobutabarbital). A supplemental dose (40 mg/kg, IP) was administered if the animal responded to physical stimuli (e.g. toe pinch). The surgical site was shaved and a 1-2 cm midline incision of the ventral aspect of the neck was made. The jugular vein was isolated and cannulated with a saline-filled polyethylene catheter (PE-50) to allow IV infusion of MCh. Trachea was dissected free and cannulated with a 14G needle (#NE-014, Small Parts, Miami Lakes, Fla.). After placement of the tracheal cannula, each rat was ventilated using a respirator (Model 683, Harvard Apparatus, Inc., MA) set at a stroke volume of 1 mL/100 g body weight (but not exceeding 2.5 mL volume) and a rate of 90 strokes per minute. A T-connector was placed along the respirator expiratory tubing to allow for measurement of changes in ventilation pressure (VP) using a Biopac transducer that was connected to a Biopac […]) pre-amplifier. Body temperature was maintained at 37° C. using a heating pad. Changes in VP were recorded using the Acknowledge Data Collection Software (Santa Barbara, Calif.). Baseline values were collected for at least 2.5 min. Rats were then challenged with non-cumulative intravenous (IV) infusions of 40 and 80 μg/kg MCh. MCh was infused intravenously for 2.5 minutes from a syringe pump (sp210iw, World Precision Instruments, Inc., Sarasota, Fla.) at a rate of 2 mL/kg/min, with a 2 minute interval between the two doses of MCh. Changes in ventilation pressure (cm H2O) in treated animals are expressed as % inhibition of MCh response relative to control animals. Other bronchoconstrictors, such as histamine and acetylcholine, can be used in place of MCh in this assay. Additionally, guinea pigs can be used instead of rats. […] Inhibition greater than or equal to 30 percent at 24 h is indicative of a long duration of action.

| SMILES | inhibition in vivo at 0.1 mg |
| --- | --- |
| C[C@H](Cc1cccc(CCNC(=O)Cc2ccc(N(C)C(=O)CCN3CCC(OC(=O)Nc4ccccc4-c4ccccc4)CC3)cc2)c1)NC[C@H](O)c1ccc(O)c2[nH]c(=O)ccc12 [Compound I-86, Biphenyl-2-ylcarbamic Acid 1-{2-[(4-{[2-(3-{(R)-2-[(R)-2-Hydroxy-2-(8-hydroxy-2-oxo-1,2-dihydroquinolin-5-yl)ethylamino]propyl}phenyl)-ethylcarbamoyl]methyl}phenyl)methylcarbamoyl]ethyl}piperidin-4-yl Ester Ditrifluoroacetic Acid Salt] | > 30% |

same assay, conditions: inhaled or nasal; rat, 100 μg by inhalation, 24 h after administration; read-out: Broncho. at 24 h

| SMILES | inhibition in vivo at 0.1 mg |
| --- | --- |
| Cc1ccc(C(=O)Nc2ccc(CCNC[C@H](O)c3ccc(O)c4[nH]c(=O)ccc34)cc2)cc1N(C)C(=O)CCN1CCC(OC(=O)Nc2ccccc2-c2ccccc2)CC1 [Compound I-35] | > 30% |

same assay, conditions: rat, 100 μg by inhalation, 24 h after administration

| SMILES | Broncho. at 24 h |
| --- | --- |
| Cc1cc(NC(=O)c2cccc(N(C)C(=O)CCN3CCC(OC(=O)Nc4ccccc4-c4ccccc4)CC3)c2)c(C)cc1CNC[C@H](O)c1ccc(O)c2[nH]c(=O)ccc12 [Compound I-30] | No |
| C[C@@H](Cc1cccc(NC(=O)c2cccc(N(C)C(=O)CCN3CCC(OC(=O)Nc4ccccc4-c4ccccc4)CC3)c2)c1)NC[C@H](O)c1ccc(O)c2[nH]c(=O)ccc12 [Compound I-39] | No |
| Cc1cc(CNC[C@H](O)c2ccc(O)c3[nH]c(=O)ccc23)ccc1NC(=O)c1cccc(N(C)C(=O)CCN2CCC(OC(=O)Nc3ccccc3-c3ccccc3)CC2)c1 [Compound I-27] | No |
| C[C@H](Cc1cccc(CC(=O)NCCCN(C)C(=O)CCN2CCC(OC(=O)Nc3ccccc3-c3ccccc3)CC2)c1)NC[C@H](O)c1ccc(O)c2[nH]c(=O)ccc12 [Compound I-12] | No |
| Cc1cc(CNC[C@H](O)c2ccc(O)c3[nH]c(=O)ccc23)ccc1NC(=O)CCCN(C)C(=O)CCN1CCC(OC(=O)Nc2ccccc2-c2ccccc2)CC1 [Compound I-2] | No |
| CC(Cc1cccc(CC(=O)Nc2cccc(N(C)C(=O)CCN3CCC(OC(=O)Nc4ccccc4-c4ccccc4)CC3)c2)c1)NC[C@H](O)c1ccc(O)c2[nH]c(=O)ccc12 (stereo partly drawn) [Compound I-52] | No |
| CC(Cc1cccc(CNC(=O)c2cccc(N(C)C(=O)CCN3CCC(OC(=O)Nc4ccccc4-c4ccccc4)CC3)c2)c1)NC[C@H](O)c1ccc(O)c2[nH]c(=O)ccc12 (stereo partly drawn) [Compound I-44] | No |
| CC(Cc1ccc(CNC(=O)Cc2ccc(N(C)C(=O)CCN3CCC(OC(=O)Nc4ccccc4-c4ccccc4)CC3)cc2)cc1)NC[C@H](O)c1ccc(O)c2[nH]c(=O)ccc12 (stereo partly drawn) [Compound I-66] | No |
| CC(Cc1ccc(CC(=O)NCc2ccc(N(C)C(=O)CCN3CCC(OC(=O)Nc4ccccc4-c4ccccc4)CC3)cc2)cc1)NC[C@H](O)c1ccc(O)c2[nH]c(=O)ccc12 (stereo partly drawn) [Compound I-80] | No |
| C[C@@H](Cc1cccc(CCNC(=O)c2ccc(N(C)C(=O)CCN3CCC(OC(=O)Nc4ccccc4-c4ccccc4)CC3)cc2)c1)NC[C@H](O)c1ccc(O)c2[nH]c(=O)ccc12 [Compound I-56] | No |
| Cc1ccc(C(=O)NCc2cccc(CC(C)NC[C@H](O)c3ccc(O)c4[nH]c(=O)ccc34)c2)cc1N(C)C(=O)CCN1CCC(OC(=O)Nc2ccccc2-c2ccccc2)CC1 (stereo partly drawn) [Compound I-45] | No |
| C[C@H](Cc1ccc(NC(=O)c2cccc(N(C)C(=O)CCN3CCC(OC(=O)Nc4ccccc4-c4ccccc4)CC3)c2)cc1)NC[C@H](O)c1ccc(O)c2[nH]c(=O)ccc12 [Compound I-42] | No |
| C[C@H](Cc1cccc(NC(=O)c2cccc(N(C)C(=O)CCN3CCC(OC(=O)Nc4ccccc4-c4ccccc4)CC3)c2)c1)NC[C@H](O)c1ccc(O)c2[nH]c(=O)ccc12 [Compound I-38] | No |
| CN(CCCCC(=O)Nc1ccc(CNC[C@H](O)c2ccc(O)c3[nH]c(=O)ccc23)cc1)C(=O)CCN1CCC(OC(=O)Nc2ccccc2-c2ccccc2)CC1 [Compound I-14, Biphenyl-2-ylcarbamic Acid 1-(2-{[4-(4-{[(R)-2-hydroxy-2-(8-hydroxy-2-oxo-1,2-dihydroquinolin-5-yl)ethylamino]methyl}phenylcarbamoyl)-butyl]methylcarbamoyl}ethyl)piperidin-4-yl Ester Ditrifluoroacetic Acid Salt] | Yes (Bronchoprotective effect present at 24 h, e.g., ≧30% inhibition of the MCh response at 24 h in the rat Einthoven assay (100 μg)) |
| COc1cc(CNC[C@H](O)c2ccc(O)c3[nH]c(=O)ccc23)ccc1NC(=O)c1cccc(N(C)C(=O)CCN2CCC(OC(=O)Nc3ccccc3-c3ccccc3)CC2)c1 [Compound I-29] | No |
| C[C@@H](Cc1cccc(CC(=O)NCc2ccc(N(C)C(=O)CCN3CCC(OC(=O)Nc4ccccc4-c4ccccc4)CC3)cc2)c1)NC[C@H](O)c1ccc(O)c2[nH]c(=O)ccc12 [Compound I-79] | No |
| Cc1ccc(C(=O)Nc2cccc(CCNC[C@H](O)c3ccc(O)c4[nH]c(=O)ccc34)c2)cc1N(C)C(=O)CCN1CCC(OC(=O)Nc2ccccc2-c2ccccc2)CC1 [Compound I-33] | No |
| CN(C(=O)CCN1CCC(OC(=O)Nc2ccccc2-c2ccccc2)CC1)c1cccc(C(=O)Nc2cccc(CCNC[C@H](O)c3ccc(O)c4[nH]c(=O)ccc34)c2)c1 [Compound I-32] | No |
| Cc1ccc(C(=O)Nc2cccc(CC(C)NC[C@H](O)c3ccc(O)c4[nH]c(=O)ccc34)c2)cc1N(C)C(=O)CCN1CCC(OC(=O)Nc2ccccc2-c2ccccc2)CC1 (stereo partly drawn) [Compound I-37] | No |
| Cc1cc(NC(=O)CCCCN(C)C(=O)CCN2CCC(OC(=O)Nc3ccccc3-c3ccccc3)CC2)c(C)cc1CNC[C@H](O)c1ccc(O)c2[nH]c(=O)ccc12 [Compound I-18, Biphenyl-2-ylcarbamic Acid 1-(2-{[4-(4-{[(R)-2-Hydroxy-2-(8-hydroxy-2-oxo-1,2-dihydroquinolin-5-yl)ethylamino]methyl}-2,5-dimethylphenylcarbamoyl)butyl]methylcarbamoyl}ethyl)piperidin-4-yl Ester Ditrifluoroacetic Acid Salt] | Yes (Bronchoprotective effect present at 24 h, e.g., ≧30% inhibition of the MCh response at 24 h in the rat Einthoven assay (100 μg)) |
| Cc1cc(CNC[C@H](O)c2ccc(O)c3[nH]c(=O)ccc23)ccc1NC(=O)c1ccc(C)c(N(C)C(=O)CCN2CCC(OC(=O)Nc3ccccc3-c3ccccc3)CC2)c1 [Compound I-28] | No |
| CN(C(=O)CCN1CCC(OC(=O)Nc2ccccc2-c2ccccc2)CC1)c1ccc(CC(=O)NCc2ccc(CCNC[C@H](O)c3ccc(O)c4[nH]c(=O)ccc34)cc2)cc1 [Compound I-64] | No |
